How the values were obtained:
[1] = molecular target: T1, LXR alpha (Homo sapiens, UniProt Q13133); assay: LXR alpha agonist assay (Lanthascreen TR-FRET); assay type: biochemical; conditions: LXR alpha-LBD 2.5 nM, read-out: LXR-α EC50
T1 construct: 5 μL of 4×LXR alpha-LBD was added to each well (final concentration 2.5 nM); purchased Thermofisher PV4655
T1 sequence (Q13133 209-447 limits assumed): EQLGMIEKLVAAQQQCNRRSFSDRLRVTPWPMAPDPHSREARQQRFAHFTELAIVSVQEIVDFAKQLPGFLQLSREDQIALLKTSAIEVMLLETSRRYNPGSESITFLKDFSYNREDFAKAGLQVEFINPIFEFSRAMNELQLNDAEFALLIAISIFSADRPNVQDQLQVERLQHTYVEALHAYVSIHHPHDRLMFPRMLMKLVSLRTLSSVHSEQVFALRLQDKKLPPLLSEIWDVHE
Description: EC50 values of compounds against LXR alpha were determined at Integral BioSciences (India) using Lanthascreen TR-FRET (Thermofisher, Cat #PV4655). Assay was performed in a 20 μL final volume in a Black 384-well plate (Corning, Cat #4511). Dose response curve for the compounds were prepared in duplicates with starting concentration at 30 μM and a three-fold titration was performed. The reaction buffer consisted of TR-FRET Coregulator Buffer H. To the compound dilution, 5 μL of 4×LXR alpha-LBD was added to each well (final concentration 2.5 nM). An equal volume (5 μL) containing 4×Fl-D22/Tb-anti GST antibody (final concentration 250 nM/10 nM) was added to initiate the enzyme reaction and the reaction was incubated for 60 min at 22° C. after which the plates were read using BioTek Plate reader for TR-FRET every hour up to 4 hours.
Analysis was done using the standard curve by non-linear regression, variable slope inhibitor curve fits (Graph-Pad Prism) and EC50's of compounds were determined wherever possible.

[2] = molecular target: T2, LXR beta (Homo sapiens, UniProt P55055); assay: LXR beta agonist assay (Lanthascreen TR-FRET); assay type: biochemical; conditions: LXR beta-LBD 5 nM, read-out: LXR-β EC50
T2 construct: 5 μL of 4×LXR beta-LBD was added to each well (final concentration 5 nM); purchased Thermofisher PV4658
T2 sequence (P55055 222-460 limits assumed): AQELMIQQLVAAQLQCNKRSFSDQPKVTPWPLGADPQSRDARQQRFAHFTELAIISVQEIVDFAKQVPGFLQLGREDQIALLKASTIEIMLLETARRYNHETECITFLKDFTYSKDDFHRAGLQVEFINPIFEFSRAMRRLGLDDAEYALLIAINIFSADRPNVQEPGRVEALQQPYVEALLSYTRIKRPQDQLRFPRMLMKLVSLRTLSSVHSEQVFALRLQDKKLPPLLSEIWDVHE
Procedure, shortened: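 TR-FRET coactivator recruitment: 5 nM LXR beta-LBD with 100 nM Fl-D22 peptide and 10 nM Tb-anti-GST antibody (final) in Coregulator Buffer G, 60 min at 22° C, read hourly up to 4 hours. Duplicate three-fold titrations from 30 μM; EC50 by variable-slope nonlinear regression.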

[3] = tested on: A549; assay: Cell viability assay (resazurin) in A549; assay type: cell-based; conditions: Homo sapiens, 96 hr exposure
Description: (§1) HepG2 (ATCC® HB-8065™), hepatocellular carcinoma, A549 (ATCC® CCL-185™), lung epithelial carcinoma, MCF7 (ATCC® HTB-22™), mammary gland epithelial carcinoma, MDA-MB-231 (ATCC® HTB-26™), TNBC, MiaPaCa-2 (ATCC® CRL-1420™) & Panc-1 (ATCC® CRL-1469™), pancreatic epithelial carcinoma, HCT116 (ATCC® CCL-247™), colon epithelial carcinoma and U87MG (ATCC® HTB-14™), brain epithelial carcinoma cell lines respectively were seeded in the respective medium (DMEM, Cat #10569044 with 10% FBS, Cat #16000044; Gibco for HepG2, A549, MCF7, MDA-MB-231, MiaPaCa-2, Panc-1, HCT116 and MEM, Cat #11095080 with 10% FBS for U87MG). Cells were allowed to grow at 37° C. for 24 hr in 5% CO2 (culture conditions) in a Nuaire incubator (humidified). Serially diluted compounds (100 μl) were added to the culture plate 24 hr later and the cultures were further incubated in culture conditions for 96 hr. Experiment was terminated at the completion of 96 hr exposure to the drug by replacing the medium with 100 μl of 1 mM of resazurin (R7017; Sigma) prepared in culture medium and the plates were further incubated in culture conditions for 4 hr. Fluorescence was then measured using a multimodal plate reader (Biotek Synergy Neo) at an excitation wavelength of 535 nm and emission wavelength of 590 nm to obtain relative fluorescence units. Data analysis was done by subtracting the background fluorescence (only medium blank) value from each reading and then normalizing with the vehicle control (DMSO treated cells) to obtain percent survival/proliferation. Percent survival at different doses was used to calculate IC50 by fitting the curve to the “four-parameter variable slope logistic model” using Prism Graph Pad.

[4] = tested on: ApoE; assay: THP-1 Western blotting assay (ApoE); assay type: cell-based; conditions: 30 μM; for ApoE normalized with Vehicle treated (DMSO) Control: 18 hour, PMA-differentiated THP-1 cells, densitometry, control = 100; for Fold Difference: ApoE vs DMSO control, THP-1 cells
Description: THP-1 cells (2×10^6 cells/well) were differentiated with PMA (10 ng/mL) for 24 following which the cells were treated with different concentrations (30 μM and 10 μM) of compound for 18 hour in cell culture conditions (5% CO2, 37° C.). The cells were lysed using 1×RIPA (Cat #9806; Cell Signaling Technologies) buffer with Protease inhibitor (1×) (Cat #P830, Sigma) and sonicated. Whole cell lysate was collected and protein estimation was done using Bradford Reagent. The samples were subjected to SDS PAGE Electrophoresis and the protein bands were transferred onto PVDF membrane using wet transfer. The membrane was further blocked with 5% non-fat dry milk and incubated with primary antibody (ApoE; 1:1000, Cat #D7I9N, ABCA1; 1:1000, Cat #96292S; Cell Signaling Technologies) and secondary antibody (Anti rabbit IgG 1:2000, Cat #7074S, Cell Signaling Technologies). The membrane was then developed using ECL reagent (Ref. 32106, Thermo Fisher Scientific) in a gel doc system. The expression of protein was quantified by densitometry analysis.

[5] = tested on: HepG2; assay: Cell viability assay (resazurin) in HepG2; assay type: cell-based; conditions: Homo sapiens, 96 hr exposure
Description: as §1

[6] = tested on: MDA-MB-231; assay: Cell viability assay (resazurin) in MDA-MB-231; assay type: cell-based; conditions: Homo sapiens, 96 hr exposure, read-out: MDA_MB-231 Cell IC50
Description: as §1

[7] = tested on: HCT116; assay: Cell viability assay (resazurin) in HCT116; assay type: cell-based; conditions: Homo sapiens, HCT-116; 96 hr exposure
Description: as §1

[8] = tested on: THP1; assay: Cell viability assay in THP1; assay type: cell-based; conditions: Homo sapiens, THP-1
[9] = tested on: MCF7; assay: Cell viability assay (resazurin) in MCF7; assay type: cell-based; conditions: Homo sapiens, 96 hr exposure
Description: as §1

SMILES	EC50 [1]	EC50 [2]	IC50 [3]	ApoE normalized with Vehicle treated (DMSO) Control [4]	Fold Difference [4]	IC50 [5]	IC50 [6]	IC50 [7]	IC50 [8]	IC50 [9]
CN(C)C(=O)c1ccc(NC2CN(C3CCN(C(=O)[C@@](O)(c4ccccc4)C(F)(F)F)CC3)C2)cc1Cl (single isomer, unassigned) [Compound 1.10]	26.1 µM	0.141 µM	> 30 µM	221.8	2.22	> 29.6 µM	> 30 µM	–	–	–
CC(C)[C@@](O)(C(=O)N1CCC(N2CC(Nc3ccc(C(=O)N(C)C)c(Cl)c3)C2)CC1)C(F)(F)F (single isomer, unassigned) [Compound 1.44]	> 30 µM	10.9 µM	> 30 µM	156.5	1.57	–	> 30 µM	> 30 µM	> 30 µM	–
O=C(N1CCC(C2CCN(c3cc(Cl)c4c(=O)[nH]ccc4c3)CC2)CC1)[C@](O)(c1ccccc1)C(F)(F)F [Compound 1.19, (R)-8-chloro-6-(1′-(3,3,3-trifluoro-2-hydroxy-2-phenylpropanoyl)-4,4′-bipiperidin-1-yl)isoquinolin-1(2H)-one]	0.41 µM	0.451 µM	6.9 µM	–	–	3.7 µM	7.2 µM	–	–	–
CN(C)C(=O)c1ccc(-c2nnc(N3CCC4(CCN(S(=O)(=O)c5ccccc5Cl)CC4)C3)s2)cc1Cl [Compound 1.50, 2-chloro-4-(5-(8-(2-chlorophenylsulfonyl)-2,8-diazaspiro[4.5]decan-2-yl)-1,3,4-thiadiazol-2-yl)-N,N-dimethylbenzamide]	–	–	14.4 µM	–	–	23.8 µM	17 µM	15.4 µM	14.6 µM	14.5 µM
CN(C)C(=O)c1ccc(-c2nnc(N3CC4(CCN(S(=O)(=O)c5ccccc5Cl)CC4)C3)s2)cc1Cl [Compound 1.51, 2-chloro-4-(5-(7-(2-chlorophenylsulfonyl)-2,7-diazaspiro [3.5]nonan-2-yl)-1,3,4-thiadiazol-2-yl)-N,N-dimethylbenzamide]	–	–	4.47 µM	–	–	> 29 µM	5.44 µM	4.46 µM	5.93 µM	4.18 µM
CN(C)C(=O)c1ccc(NC2CN(C3CCN(C(=O)C(F)(F)c4ccccc4Cl)CC3)C2)cc1Cl [Compound 1.52, 2-chloro-4-(1-(1-(2-(2-chlorophenyl)-2,2-difluoroacetyl)piperidin-4-yl)azetidin-3-ylamino)-N,N-dimethylbenzamide]	–	5.68 µM	> 30 µM	–	–	> 30 µM	> 30 µM	> 30 µM	> 30 µM	> 30 µM
CN(C)C(=O)c1ccc(N[C@H]2CCCN(C3CCN(C(=O)[C@](O)(c4ccccc4)C(F)(F)F)CC3)C2)cc1Cl [Compound 1.53, 2-chloro-N,N-dimethyl-4-((S)-1′-((R)-3,3,3-trifluoro-2-hydroxy-2-phenylpropanoyl)-1,4′-bipiperidin-3-ylamino)benzamide]	–	16.9 µM	> 30 µM	–	–	> 30 µM	> 30 µM	> 30 µM	> 30 µM	> 30 µM
CC(C)C(O)(C(=O)N1CCC2(CC1)CN(C1CCN(c3ccc(C(=O)N(C)C)c(Cl)c3)CC1)C2)C(F)(F)F (stereo not shown) [Compound 1.54, 2-chloro-4-(4-(7-(2-hydroxy-3-methyl-2-(trifluoromethyl)butanoyl)-2,7-diazaspiro[3.5]nonan-2-yl)piperidin-1-yl)-N,N-dimethylbenzamide]	–	> 30 µM	> 30 µM	–	–	> 30 µM	> 30 µM	> 30 µM	> 30 µM	> 30 µM
CN(C)C(=O)c1ccc(N2CCC(N3CC4(CN(C(=O)[C@](O)(c5ccccc5)C(F)(F)F)C4)C3)CC2)cc1Cl [Compound 1.55, 2-chloro-N,N-dimethyl-4-(4-(6-((R)-3,3,3-trifluoro-2-hydroxy-2-phenylpropanoyl)-2,6-diazaspiro[3.3]heptan-2-yl)piperidin-1-yl)benzamide]	–	16.3 µM	> 30 µM	–	–	> 30 µM	> 30 µM	> 30 µM	> 30 µM	> 30 µM
CN(C)C(=O)c1ccc(NC2CN(C3CCN(C(=O)C4(c5c(F)cccc5Cl)CCCC4)CC3)C2)cc1Cl [Compound 1.56, 2-chloro-4-(1-(1-(1-(2-chloro-6-fluorophenyl)cyclopentanecarbonyl)piperidin-4-yl)azetidin-3-ylamino)-N,N-dimethylbenzamide]	–	–	12.4 µM	–	–	12.9 µM	13.8 µM	12.4 µM	14.5 µM	12.8 µM
CN(C)C(=O)c1ccc(N[C@@H]2CCN(C3CCN(C(=O)[C@](O)(c4ccccc4)C(F)(F)F)CC3)C2)cc1Cl [Compound 1.57, 2-chloro-N,N-dimethyl-4-((R)-1-(1-((R)-3,3,3-trifluoro-2-hydroxy-2-phenylpropanoyl)piperidin-4-yl)pyrrolidin-3-ylamino)benzamide]	–	2.82 µM	> 30 µM	–	–	> 30 µM	> 30 µM	> 30 µM	> 30 µM	> 30 µM
CC(C)C(O)(C(=O)N1CCC(N2CC[C@@H](Nc3ccc(C(=O)N(C)C)c(Cl)c3)C2)CC1)C(F)(F)F (stereo partly drawn) [Compound 1.58, 2-chloro-4-((3R)-1-(1-(2-hydroxy-3-methyl-2-(trifluoromethyl)butanoyl)piperidin-4-yl)pyrrolidin-3-ylamino)-N,N-dimethylbenzamide]	–	–	> 30 µM	–	–	> 30 µM	> 30 µM	> 30 µM	> 30 µM	> 30 µM
